{"source": "patent US10799512B2", "about": "“Estrogen combination for treatment of multiple sclerosis” (The Regents of the University of California, priority 2014, dated 2020)", "assay_type_in_all_cases": "in vivo, human", "key": {"[1]": {"assay": "Estriol blood/serum levels in treated patients", "method": "(§1) Patients also underwent mammograms before and after the study.\nBaseline characteristics were similar in both patient groups.\nFIG. 6 depicts estriol blood levels induced by treatment with estriol 8 mg per day every day plus norethindrone 0.7 mg a day for 14 days every 3 months."}, "[2]": {"system": "female patients with active relapsing multiple sclerosis", "assay": "Safety and tolerability (gynecological and breast exams, adverse events)", "settings": "patients received Copaxone with estriol", "method": "158 patients were randomized to Copaxone® (glatiramer acetate) injections (20 mg/day) and oral estriol (8 mg/day) or to Copaxone® injections and placebo for a 24-month treatment duration. Gynecologists examined the patients before, during, and after the study. Each patient was examined at three- to six-month intervals during the trial. Patients also underwent mammograms before and after the study. In addition, at baseline, three months, six months, 12 months, 18 months, and 24 months, the investigators measured participants' estriol levels, and assessed for MS relapses and MS-related disabilities.\nBaseline characteristics were similar in both patient groups. Participants' mean age at entry was approximately 38, and their mean EDSS score at entry was 2.2. […] To ensure breast and uterus safety, every three months the patients took norethindrone 0.7 mg once a day for 14 days."}, "[3]": {"system": "female patients with active relapsing multiple sclerosis", "assay": "Expanded Disability Status Scale (EDSS)", "settings": "over 24 months", "from_the_text": "as §1\nThe Expanded Disability Status Scale (EDSS) is a standard composite disability score used in MS trials. Higher scores indicate worse disability. This composite covers a variety of disabilities (including ambulation, vision, cognition, coordination, etc.), but the scoring is not linear and the composite score is understood to be principally an indicator of the level of disability in ambulation."}, "[4]": {"system": "female patients with active relapsing multiple sclerosis", "assay": "Timed 25-foot walk test", "settings": "between-group difference p=0.02; higher time = worse", "from_the_text": "as §1\nAnother clinical disability measure with treatment effects was the timed 25-foot walk test. This test measures how many seconds it takes to walk 25 feet, with higher scores indicating worse disability. […] This beneficial effect of estriol treatment on 25-foot walking times is consistent with the beneficial effect of estriol treatment on EDSS scores since the latter is weighted toward being an indicator of ambulation."}, "[5]": {"system": "female patients with active relapsing multiple sclerosis", "assay": "Brain MRI, gadolinium enhancing lesions", "settings": "at month 12; p=0.14", "from_the_text": "as §1\nBrain MRI is used extensively in MS as a surrogate marker for clinical effects. Brain white matter gadolinium enhancing lesions are a biomarker for relapses."}}}
{"compound": "C[C@]12CC[C@@H]3c4ccc(O)cc4CC[C@H]3[C@@H]1C[C@@H](O)[C@@H]2O", "note": "[estriol]", "values": [{"measurement": "estriol blood levels induced", "setting": "[1]; estriol 8 mg per day every day plus norethindrone 0.7 mg a day for 14 days every 3 months, FIG. 6", "result": "about 10 ng/ml"}, {"measurement": "estriol levels in serum", "setting": "[1]; estriol-treated group, oral estriol 8 mg/day", "result": "mid-pregnancy range"}, {"measurement": "Breast - Fibrocystic breast disease on clinical exam", "setting": "[2]", "result": 5, "unit": "subjects"}, {"measurement": "Uterine fibroids on ultrasound", "setting": "[2]", "result": 8, "unit": "subjects"}]}
{"compound": "glatiramer acetate [Copaxone® plus placebo]", "values": [{"measurement": "EDSS scores, slope", "setting": "[3]; FIG. 4, p=0.06 (estriol), p=0.90 (placebo)", "result": "−0.01"}, {"measurement": "change in EDSS scores", "setting": "[3]; decrease = improvement", "result": "no change"}, {"measurement": "change in 25-foot walk time", "setting": "[4]", "result": "significantly increased"}, {"measurement": "reduction in number of subjects with brain MRI scans positive for enhancing lesions", "setting": "[5]", "result": 22, "unit": "%"}]}
